Source: patent US11274125B2, “Amyloid-beta-binding peptides and the use thereof for the treatment and diagnosis of Alzheimer's disease” (FORSCHUNGSZENTRUM JUELICH GMBH, priority 2013, dated 2022)
Entries after “also recorded” stand apart in the source; their conditions may differ. Each block holds one substance with its values, some of them ahead of it. Where no end group is shown, it is not given here. [ ]: non-standard residue; d: D form.

Columns and labels:
[1] = target: T1, amyloid beta oligomers (Aß1-42) (Homo sapiens, UniProt P05067); experiment: SPR binding kinetics, amyloid beta oligomer
T1 construct: 1 mg lyophilized Aß1-42 and N-terminal biotinylated Aß1-42; biotin (only on part of the peptide molecules)
T1 sequence (P05067 672-713): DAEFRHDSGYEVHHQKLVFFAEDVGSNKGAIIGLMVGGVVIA
Procedure: (§1) 1 mg lyophilized Aß1-42 and N-terminal biotinylated Aß1-42 were each dissolved in 1 ml 100% hexafluoroisopropanol (HFIP) and dissolved overnight at room temperature. For the oligomer and fibril preparation, non-biotinylated Aß was used with N-terminal biotinylated Aß at a ratio of 1:10 and the HFIP was evaporated (Concentrator 5301 from Eppendorf). The resultant Aß film, at a final concentration of 80 μM, was placed in sodium phosphate buffer (10 mM, pH 7.4) and incubated (RT, 600 rpm). The incubation time was 3 h for the oligomer preparation, and 24 h for the fibril preparation. 100% N-terminal biotinylated Aß1-42 without incubation was used for the preparation of monomers.
(§2) The density gradient centrifugation was carried out subsequent to the Aß preparation to purify the respective Aß species according to the size of the same. An iodixanol gradient in 10 mM sodium phosphate buffer, pH 7.4 with rising concentrations from 50% to 5% v/v iodixanol was used for this purpose. 100 μl of the Aß sample was applied and separated by way of ultracentrifugation (3 h, 4° C., 259000 g). Subsequently, the gradient was fractionated into 14 fractions, 140 μl each. Monomeric Aß are present in the first two top fractions, Aß oligomers in fractions 4 to 6, and Aß fibrils in fractions 1 to 13.
Immobilization for Surface Plasmon Resonance (SPR) Spectroscopy A T200 from Biacore (GE Healthcare) was used for SPR spectroscopy. The Aß species purified by way of density gradient centrifugation were directly immobilized on a sensor chip (Series S Sensor Chips SA) according to the manufacturer's instructions by way of biotin-streptavidin coupling. 1×PBS was used as the running buffer. Loading took place at 25° C. and a flow rate of 5 μl/min. […]
(§3) Binding kinetics were likewise measured by way of SPR spectroscopy using a T200 device from Biacore (GE Healthcare). […] The binding curves were evaluated by way of kinetic fit models (heterogeneous binding model) using the Biacore T200 evaluation software (version 2.0). […]

[2] = target: T2, amyloid beta fibrils (Aß1-42) (Homo sapiens, UniProt P05067); experiment: SPR binding kinetics, amyloid beta fibrils; details: heterogeneous binding model, FIG. 8
T2 construct: 1 mg lyophilized Aß1-42 and N-terminal biotinylated Aß1-42; biotin (only on part of the peptide molecules)
T2 sequence (P05067 672-713): as above
Procedure: as §1
as §2, with “Subsequently, the gradient was fractionated into 14 fractions, 140 μl each. Monomeric Aß are present in the first two top fractions, Aß oligomers in fractions 4 to 6, and Aß fibrils in fractions 1 to 13.” left out
as §3

TgSwDI mouse model [3] = experiment: Object recognition test (ORT); type: in vivo; details: TgSwDI mice
Procedure: FIG. 1: Here, the result of the so-called “object recognition test” (ORT) is shown. Animals treated with D3D3 (amidated) (details in Table 2) and animals treated with placebo were placed individually and separately from each other in a box in which two objects were located. After the animals had time to explore both objects, the animals were removed from the box again and not placed back in there until 24 hours later. Before that, however, one object was replaced with a new object different therefrom. Animals having memory now preferably explore the new object. Animals having no memory of having stayed in the box 24 hours earlier spend the same amount of time exploring the old object and the new object. The time that the animal spends with the old object (white bars) and the new object (black bars) is measured in seconds. It is clearly apparent that the animals treated with the placebo spend the same amount of time with the new and the old objects. […] Thus, only the animals treated with D3D3 show a functioning memory in the test.
FIG. 5: Here, the result of the so-called “object recognition test” (ORT) is shown. Animals treated with RD2D3 (amidated) (details in Table 2) and animals treated with placebo were placed individually and separately from each other in a box in which two objects were located. After the animals had time to explore both objects, the animals were removed from the box again and not placed back in there until 24 hours later. Before that, however, one object was replaced with a new object different therefrom. Animals having memory now preferably explore the new object. Animals having no memory of having stayed in the box 24 hours earlier spend the same amount of time exploring the old object and the new object. The time that the animal spends with the old object (black bars) and the new object (white bars) is measured in seconds. It is clearly apparent that the animals treated with the placebo spent the same amount of time with the new and the old objects.

TgSwDI mouse model [4] = experiment: Morris water maze; type: in vivo; details: TgSwDI mice, 7 mg/4 weeks i.p. (micropump), day 5, FIG. 4; listed as RD2D3 (amidated)
Procedure: FIG. 4: The so-called “Morris water maze” is used to measure the spatial memory of animals. The time is measured in seconds that the animal requires to locate a platform hidden closely beneath the water surface in a water tank. This is measured in several experiments per day on several consecutive days. […] The search time is plotted in seconds on five consecutive days. The learning of animals treated with RD2D3 (amidated) was significant.

TBA 2.1 mice [5] = experiment: Rotarod test; type: in vivo, mouse; details: 0.1 mg/day i.p. for 4 weeks (micropump), before vs after treatment
From the text: FIG. 2: The so-called “rotarod” test is used to measure how long an animal is able to balance on a rotating rod before falling off. This allows the animal's neuromotor performance to be measured. The longer the animal is able to balance, the less strongly the motor neurons are affected by the phenotype of neurodegeneration. The difference between before and after treatment is plotted in seconds. […] As expected, the degeneration has thus progressed. […] Thus, the treatment slowed, or even stopped, the neurodegeneration in both instances.

TBA 2.1 mice [6] = experiment: SHIRPA test; type: in vivo, mouse; details: 0.1 mg/day i.p. for 4 weeks (micropump), before vs after treatment, FIG. 3, listed as D3D3 (amidated)
Procedure: FIG. 3: The SHIRPA test is a test where a number of characteristics, including reflexes, are tested. Each characteristic is assessed separately from the others, and points are awarded in each case. The higher the number of points, the more progressed the phenotype, which is to say the neurological damage, is. The SHIRPA test was measured prior to (black bars) and after (white bards) the treatment (treatment details are provided in Table 2). […] D3D3 thus acts more efficiently than D3.

Substance: rprtrlhthrnr ([dR][dP][dR][dT][dR][dL][dH][dT][dH][dR][dN][dR]) [linear D3, known D-enantiomeric peptide D3, linear, unmodified C-terminal carboxyl group, reference compound]
- Binding strength (KD, kinetics) to amyloid beta oligomer ([1]; heterogeneous binding model, FIG. 7): binds only a low-affinity site, but not a high-affinity site

- Binding strength (KD, kinetics) to amyloid beta fibrils [2]: sub-pM binding range
Substance: RKRTRLHTHRNR [cD3(P2K)]

Substance: RD2D3 amidated: dimer RD2D3 (SEQ ID NO: 4), amidated at position 24 at the free C-terminus ([dP][dT][dL][dH][dT][dH][dN][dR][dR][dR][dR][dR][dR][dP][dR][dT][dR][dL][dH][dT][dH][dR][dN][dR]-NH2; N-terminus assumed; SMILES CC(C)C[C@@H](NC(=O)[C@@H](CCCNC(=N)N)NC(=O)[C@H](NC(=O)[C@@H](CCCNC(=N)N)NC(=O)[C@H]1CCCN1C(=O)[C@@H](CCCNC(=N)N)NC(=O)[C@@H](CCCNC(=N)N)NC(=O)[C@@H](CCCNC(=N)N)NC(=O)[C@@H](CCCNC(=N)N)NC(=O)[C@@H](CCCNC(=N)N)NC(=O)[C@@H](CCCNC(=N)N)NC(=O)[C@@H](CC(N)=O)NC(=O)[C@@H](Cc1c[nH]cn1)NC(=O)[C@H](NC(=O)[C@@H](Cc1c[nH]cn1)NC(=O)[C@@H](CC(C)C)NC(=O)[C@H](NC(=O)[C@H]1CCCN1)[C@H](C)O)[C@H](C)O)[C@H](C)O)C(=O)N[C@H](Cc1c[nH]cn1)C(=O)N[C@@H](C(=O)N[C@H](Cc1c[nH]cn1)C(=O)N[C@H](CCCNC(=N)N)C(=O)N[C@H](CC(N)=O)C(=O)N[C@H](CCCNC(=N)N)C(N)=O)[C@H](C)O)
- Object recognition (TgSwDI mouse model [3]; 7 mg/4 weeks i.p. (micropump), FIG. 5): significant
- Object recognition (TgSwDI mouse model [3]; 7 mg/4 weeks i.p. (micropump), FIG. 5, listed as RD2D3 (amidated)): spend much more time with the new object; also recorded: able to improve the cognition of SweDI mice
- Water maze (TgSwDI mouse model [4]): able to improve the cognition of SweDI mice

Substance: D3D3 amidated: dimer D3D3 (SEQ ID NO: 6), amidated at position 24 at the free C-terminus ([dR][dP][dR][dT][dR][dL][dH][dT][dH][dR][dN][dR][dR][dP][dR][dT][dR][dL][dH][dT][dH][dR][dN][dR]-NH2; N-terminus assumed; SMILES CC(C)C[C@@H](NC(=O)[C@@H](CCCNC(=N)N)NC(=O)[C@H](NC(=O)[C@@H](CCCNC(=N)N)NC(=O)[C@H]1CCCN1C(=O)[C@H](N)CCCNC(=N)N)[C@H](C)O)C(=O)N[C@H](Cc1c[nH]cn1)C(=O)N[C@@H](C(=O)N[C@H](Cc1c[nH]cn1)C(=O)N[C@H](CCCNC(=N)N)C(=O)N[C@H](CC(N)=O)C(=O)N[C@H](CCCNC(=N)N)C(=O)N[C@H](CCCNC(=N)N)C(=O)N1CCC[C@@H]1C(=O)N[C@H](CCCNC(=N)N)C(=O)N[C@@H](C(=O)N[C@H](CCCNC(=N)N)C(=O)N[C@H](CC(C)C)C(=O)N[C@H](Cc1c[nH]cn1)C(=O)N[C@@H](C(=O)N[C@H](Cc1c[nH]cn1)C(=O)N[C@H](CCCNC(=N)N)C(=O)N[C@H](CC(N)=O)C(=O)N[C@H](CCCNC(=N)N)C(N)=O)[C@H](C)O)[C@H](C)O)[C@H](C)O)
- Rotarod (TBA 2.1 mice [5]; FIG. 2, listed as D3D3): able to stop the progression of the phenotype
- Rotarod (TBA 2.1 mice [5]; FIG. 2, listed as D3D3 (amidated)): exhibited no worsening of the neuromotor symptoms
- Object recognition (TgSwDI mouse model [3]; 1 mg/4 weeks i.p. (micropump), FIG. 1): significant
- Object recognition (TgSwDI mouse model [3]; 1 mg/4 weeks i.p. (micropump), FIG. 1, listed as D3D3): considerably improves cognition
- Object recognition (TgSwDI mouse model [3]; 1 mg/4 weeks i.p. (micropump), FIG. 1, listed as D3D3 (amidated)): spend much more time with the new object
- SHIRPA (TBA 2.1 mice [6]): showed no significant worsening of the SHIRPA value; also recorded: acts more efficiently than the simple peptide D3 (amidated)

- Rmax, contribution of KD2 (high-affinity site) to RU total loading ([1]; oligomers, FIG. 7, high-affinity site): 21%
- Rmax, contribution of the low-affinity site to RU total loading ([1]; oligomers, FIG. 7, low-affinity site (white bar)): 79%
Substance: cD3z: cD3 zero, cyclized D3 without any further amino acid attachments (cyclo([dR][dP][dR][dT][dR][dL][dH][dT][dH][dR][dN][dR]); SMILES CC(C)C[C@H]1NC(=O)[C@@H](CCCNC(=N)N)NC(=O)[C@@H]([C@H](C)O)NC(=O)[C@@H](CCCNC(=N)N)NC(=O)[C@H]2CCCN2C(=O)[C@@H](CCCNC(=N)N)NC(=O)[C@@H](CCCNC(=N)N)NC(=O)[C@@H](CC(N)=O)NC(=O)[C@@H](CCCNC(=N)N)NC(=O)[C@@H](Cc2c[nH]cn2)NC(=O)[C@@H]([C@H](C)O)NC(=O)[C@@H](Cc2c[nH]cn2)NC1=O)
